Assay type in all cases: in vivo, Balb/c mouse
In series [1] the test system is psoriasis induced mice (imiquimod). As to the kind of experiment: Cumulative score of PASI for ear thickness, keratosis and skin flair (development phase). As to conditions: 100 mg/kg oral, 7 days, IMQ applied. How it is done: (§1) To investigate the delayed effect of cedrol, cedryl acetate, and alpha-cedrene on the development of psoriasis, total 5 groups of mice were prepared (8 mice/group). First, the hair of the entire back of the 8-week-old male Balb/c mouse whose immune system was weakened was removed by using a hair clipper (Kimlaube Hair pen 325,327, Rikei, Korea). In the middle of the shaved back of the mouse, 2 mg of imiquimod (3M Health Care Limited, England) was applied in the area of 2 cm×1.5 cm and also 1,125 mg of imiquimod was applied on the right ear of the mouse every day once a day to induce psoriasis.
The mice prepared above were divided into the distilled water treated group (IMQ), the cedrol treated group (C), the cedryl acetate treated group (CA), and the alpha-cedrene treated group (CE). At this time, the mice were orally treated with distilled water at the concentration of 200 μl/mouse and cedrol or its derivatives at the concentration of 200 μl/mouse (100 mg/kg). The day when distilled water or the compound administration started was recorded as day 0 and the administration was performed once a day for a week, during which photo-recording was performed every day (FIGS. 2A˜2D). In the meantime, instead of applying imiquimod, 40 mg of vaseline was applied on the back of the control group (CONT) and 22.5 mg of vaseline was applied on the right ear of the control group. […]

Series [2] is described as follows: Weight changes in the psoriasis induced mice (oral administration during imiquimod application). As to conditions: 100 mg/kg oral once a day during application of IMQ; increase. How it is done: as §1
The mice prepared above were divided into the distilled water treated group (IMQ), the cedrol treated group (C), the cedryl acetate treated group (CA), and the alpha-cedrene treated group (CE). […] The day when distilled water or the compound administration started was recorded as day 0 and the administration was performed once a day for a week, during which photo-recording was performed every day (FIGS. 2A˜2D). […]
To compare the weight changes in the psoriasis induced mice according to the oral administration of cedrol, cedryl acetate, and alpha-cedrene of Example <2-1>, the weight of each mouse was measured at the same time every day for a week.

Series [3] deals with psoriasis induced mice (imiquimod). In words: Cumulative score of PASI for ear thickness, keratosis and skin flair (recovery phase). To be noted: 100 mg/kg oral after termination of imiquimod. The procedure: Imiquimod was applied to the psoriasis induced mice which had developed psoriasis for a week in Example <2-1>. The application was stopped 8 days after the application began. The groups CON and IMQ were treated with distilled water, the group C was treated with cedrol, the group CA was treated with cedryl acetate, the group CE was treated with alpha-cedrene alone at the concentration of 100 mg/kg in 200 μl, every day via oral-administration. Day 8 was the day the imiquimod application was stopped, since then the compounds were administered for 1 week once a day, during which photo-recording was performed (FIGS. 13A˜13D).
The psoriasis area severity index obtained in Examples <3-2> and <3-4> was accumulated to compare the psoriasis area severity index for ear thickness, keratosis and skin flair of the mouse groups respectively treated with cedrol, cedryl acetate, and alpha-cedrene via oral-administration.

With `CC1=CC[C@@]23C[C@@H]1C(C)(C)[C@@H]2CC[C@H]3C` [alpha-cedrene, Alpha-cedrene], the “cumulative PASI (ear thickness, keratosis, skin flair) reduction effect, in words” value in series [1] was “strongest reduction effect at a similar level”.

As for `CC(=O)O[C@]1(C)CC[C@@]23C[C@@H]1C(C)(C)[C@@H]2CC[C@H]3C` [cedryl acetate, Cedryl acetate], the “cumulative PASI (ear thickness, keratosis, skin flair) reduction effect, in words” value in series [1] was “strongest reduction effect at a similar level”.

With `C[C@@H]1CC[C@H]2C(C)(C)[C@H]3C[C@@]12CC[C@@]3(C)O` [cedrol, Cedrol], the “weight change for 7 days” value in series [2] is given as 0.025 g. Further, the “cumulative PASI (ear thickness, keratosis, skin flair) recovery effect, in words” value in series [3] is reported as “strongest recovery effect”.

The values are drawn from patent US10307383B2, “Cosmetic composition for preventing or ameliorating hypersensitive skin comprising cedrol or derivatives thereof, or pharmaceutically acceptable salts thereof” (University of Seoul Industry Cooperation Foundation, priority 2017, dated 2019).
